# Laboratory results reported in ChEMBL document CHEMBL1201862, “PubChem BioAssay data set” (2004).
# The source made the active and inactive calls.
# Experiments:
# [1] = target: Voltage-dependent T-type calcium channel subunit alpha-1H (Homo sapiens, UniProt O95180); type: functional;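 also: channel activity triggered by adding a high calcium stimulation buffer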
# [2] = polyadenylation inhibitors in yeast reporter, dose response, luminescence, S. cerevisiae SKY197-pL101 (AID 2525); type: functional, cell-based
# [3] = target: Glyceraldehyde-3-phosphate dehydrogenase (Homo sapiens, UniProt P04406)
# [4] = target: Heat shock cognate 71 kDa protein (Homo sapiens, UniProt P11142); experiment: In Vitro Hsc70 Dose Response Fluorescence Polarization Assay. [Related pubchem assays: 1072 ]
# Protein Rev = Protein Rev (Human immunodeficiency virus type 1 group M subtype B (isolate WMJ22)(HIV-1), UniProt P05866); experiment: HIV-1 Rev-RRE RNA binding disruptors, dose response, biochemical, protein-RNA interaction (AID 842); set-up: species or system Human immunodeficiency virus 1
# Insulin-degrading enzyme = target: T1, Insulin-degrading enzyme (Homo sapiens, UniProt P14735); experiment: Dose Response: Fluorescence polarization-based cell-based high throughput dose response assay for inhibitors of insulin-degrading enzyme (IDE). [Related pubchem assays: 434962 (Primary screen (IDE inhibitors in singlicate)), 449730 (Counterscreen (Cytotoxicity in triplicate)), 435028 (Confirmation (IDE inhibitors in triplicate)), 434984 (Summary …; type: functional
# T1 sequence (P14735 whole entry): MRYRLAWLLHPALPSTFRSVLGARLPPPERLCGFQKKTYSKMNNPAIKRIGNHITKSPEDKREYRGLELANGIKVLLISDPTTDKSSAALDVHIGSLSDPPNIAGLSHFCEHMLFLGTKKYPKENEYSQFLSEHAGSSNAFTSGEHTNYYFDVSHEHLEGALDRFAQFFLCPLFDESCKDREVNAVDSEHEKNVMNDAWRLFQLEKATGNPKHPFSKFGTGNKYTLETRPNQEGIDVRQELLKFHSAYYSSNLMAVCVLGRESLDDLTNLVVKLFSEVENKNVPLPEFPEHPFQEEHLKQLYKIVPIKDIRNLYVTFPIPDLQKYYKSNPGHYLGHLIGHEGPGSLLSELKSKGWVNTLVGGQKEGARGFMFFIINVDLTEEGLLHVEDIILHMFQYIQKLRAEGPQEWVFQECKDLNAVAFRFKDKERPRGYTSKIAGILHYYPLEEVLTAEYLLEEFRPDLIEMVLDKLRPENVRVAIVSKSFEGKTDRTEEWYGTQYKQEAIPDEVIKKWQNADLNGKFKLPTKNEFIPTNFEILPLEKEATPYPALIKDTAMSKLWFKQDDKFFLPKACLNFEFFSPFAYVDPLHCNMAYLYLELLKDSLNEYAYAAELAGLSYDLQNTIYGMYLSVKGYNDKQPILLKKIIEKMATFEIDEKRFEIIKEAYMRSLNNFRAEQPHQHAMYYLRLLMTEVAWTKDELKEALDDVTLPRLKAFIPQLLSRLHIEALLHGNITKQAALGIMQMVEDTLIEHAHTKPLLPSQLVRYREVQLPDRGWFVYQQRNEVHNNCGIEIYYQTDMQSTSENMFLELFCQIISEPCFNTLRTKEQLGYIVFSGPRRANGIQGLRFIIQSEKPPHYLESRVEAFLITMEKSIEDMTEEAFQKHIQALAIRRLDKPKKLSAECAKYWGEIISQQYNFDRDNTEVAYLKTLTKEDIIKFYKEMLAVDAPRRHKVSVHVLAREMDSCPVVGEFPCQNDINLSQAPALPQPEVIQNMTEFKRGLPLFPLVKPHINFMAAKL
# [5] = Counterscreen for IDE inhibitors: Luminescence-based cell-based high throughput dose response assay to identify compounds that are cytotoxic to HEK cells. [Related pubchem assays: 434962 (Primary screen (IDE inhibitors in singlicate)), 449730 (Counterscreen (Cytotoxicity in triplicate)), 435028 (Confirmation (IDE inhibitors in triplicate)) …; type: functional; conditions: HEK293
# [6] = target: T2, Short transient receptor potential channel 4 (Mus musculus, UniProt Q9QUQ5); experiment: mouse TRPC4 channel inhibitors, dose response, cell-based, HEK293 TRPC4/mu-opioid, Fluo-4 calcium (AID 434942); type: functional;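 also: potency of inhibitors blocking the TRPC4 calcium response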
# T2 sequence (Q9QUQ5 whole entry): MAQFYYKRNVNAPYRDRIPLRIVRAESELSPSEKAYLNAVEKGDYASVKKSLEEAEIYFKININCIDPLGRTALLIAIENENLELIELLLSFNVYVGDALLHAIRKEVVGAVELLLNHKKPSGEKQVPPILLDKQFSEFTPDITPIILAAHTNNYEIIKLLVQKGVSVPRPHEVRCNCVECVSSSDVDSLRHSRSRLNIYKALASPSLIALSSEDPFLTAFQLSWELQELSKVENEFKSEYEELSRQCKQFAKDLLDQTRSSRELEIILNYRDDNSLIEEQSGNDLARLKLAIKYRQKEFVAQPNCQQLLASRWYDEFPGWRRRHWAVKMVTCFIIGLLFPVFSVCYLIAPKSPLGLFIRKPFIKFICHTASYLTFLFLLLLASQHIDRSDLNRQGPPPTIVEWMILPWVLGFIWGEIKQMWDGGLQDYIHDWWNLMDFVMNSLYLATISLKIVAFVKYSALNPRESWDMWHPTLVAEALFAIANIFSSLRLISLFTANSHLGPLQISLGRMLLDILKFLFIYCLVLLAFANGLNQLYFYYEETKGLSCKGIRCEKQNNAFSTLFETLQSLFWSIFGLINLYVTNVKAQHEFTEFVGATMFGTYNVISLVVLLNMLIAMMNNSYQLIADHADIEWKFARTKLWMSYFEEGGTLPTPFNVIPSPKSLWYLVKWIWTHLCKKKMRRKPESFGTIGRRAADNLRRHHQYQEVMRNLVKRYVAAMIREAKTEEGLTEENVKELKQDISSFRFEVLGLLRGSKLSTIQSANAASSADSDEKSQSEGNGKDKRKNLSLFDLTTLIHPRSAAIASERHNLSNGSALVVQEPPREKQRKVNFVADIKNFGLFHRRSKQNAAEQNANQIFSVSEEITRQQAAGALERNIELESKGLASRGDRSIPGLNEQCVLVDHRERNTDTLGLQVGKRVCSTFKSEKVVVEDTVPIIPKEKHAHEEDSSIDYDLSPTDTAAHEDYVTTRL
# [7] = target: G-protein coupled receptor 35 (Homo sapiens, UniProt Q9HC97); experiment: GPR35 antagonists blocking zaprinast-driven arrestin recruitment, primary screen, imaging, U2OS, beta-arrestin-GFP, zaprinast agonist (AID 2058); type: functional;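 also: antagonist potency meaning inhibition of agonist-induced arrestin redistribution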
# [8] = target: Muscarinic acetylcholine receptor M2 (Homo sapiens, UniProt P08172); experiment: Discovery of novel allosteric modulators of the M1 muscarinic receptor: Agonist NMS competition at M2. [Related pubchem assays: 626 (Discovery of Novel Allosteric Modulators of the M1 Muscarinic Receptor: Agonist Primary Screen), 1488 (Discovery of novel allosteric modulators of the M1 muscarinic receptor: Agonist Confirmation Assay)]; type: functional
# [9] = target: Muscarinic acetylcholine receptor M1 (Rattus norvegicus, UniProt P08482); experiment: Discovery of novel allosteric modulators of the M1 muscarinic receptor: Agonist NMS binding at M1. [Related pubchem assays: 626 ]
# [10] = target: Muscarinic acetylcholine receptor M5 (Homo sapiens, UniProt P08912); experiment: (§1) Discovery of novel allosteric modulators of the M1 muscarinic receptor: Agonist NMS competition at M5. [Related pubchem assays: 1488 (Discovery of novel allosteric modulators of the M1 muscarinic receptor: Agonist Confirmation Assay), 626 (Discovery of Novel Allosteric Modulators of the M1 Muscarinic Receptor: Agonist Primary Screen)]; type: functional
# [11] = target: Muscarinic acetylcholine receptor M4 (Rattus norvegicus, UniProt P08485); experiment: Discovery of novel allosteric modulators of the M1 muscarinic receptor: Agonist NMS competition at M4. [Related pubchem assays: 626, 1488, 1741 ]; type: functional
# [12] = target: Muscarinic acetylcholine receptor M3 (Homo sapiens, UniProt P20309); experiment: as §1, with “M3.” for “M5.”; type: functional
# Aspartyl aminopeptidase = Aspartyl aminopeptidase (Plasmodium falciparum 3D7, UniProt Q8I2J3)
# Procathepsin L = Procathepsin L (Homo sapiens, UniProt P07711)
# [13] = target: Alkaline phosphatase, placental type (Homo sapiens, UniProt P05187); experiment: PLAP enzyme inhibitors, confirmation, biochemical, luminescence (AID 1512); type: functional
# [14] = target: Melanin-concentrating hormone receptor 1 (Homo sapiens, UniProt Q99705); experiment: Fluorescence-based counterscreen for antagonists of the G-protein coupled receptor 7 (GPR7): cell-based high throughput dose response assay to identify antagonists of the melanin-concentrating hormone receptor 1 (MCHR1).; type: functional
# [15] = test system: Streptococcus sp. 'group A'; experiment: growth inhibition of control SK(-) GAS strain, dose response, counter-screen for streptokinase expression inhibitor project, luminescence, kanamycin, BacTiterGlo, confirmation (AID 1900); type: functional, organism-based
# Streptococcus [16] = experiment: Luminescence Microorganism-Based Dose Response Follow up to Identify Compounds Cytotoxic to Streptococcus. [Related pubchem assays: 1677 (Project Summary), 1915, 1914, 1902 (Retest at Dose), 1900 (Counter Screen), 1662 (Primary HTS)]; type: functional, organism-based
# Streptokinase A = target: T3, Streptokinase A (Streptococcus pyogenes serotype M1, UniProt P10520); experiment: S. pyogenes streptokinase expression inhibitors, potency, dose response, plasminogen activation absorbance, OD405 (AID 1914); type: functional, Streptococcus pyogenes M1 GAS;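 also: secreted streptokinase activity via plasminogen activation per viability signal from cell pellet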
# T3 sequence (P10520 whole entry): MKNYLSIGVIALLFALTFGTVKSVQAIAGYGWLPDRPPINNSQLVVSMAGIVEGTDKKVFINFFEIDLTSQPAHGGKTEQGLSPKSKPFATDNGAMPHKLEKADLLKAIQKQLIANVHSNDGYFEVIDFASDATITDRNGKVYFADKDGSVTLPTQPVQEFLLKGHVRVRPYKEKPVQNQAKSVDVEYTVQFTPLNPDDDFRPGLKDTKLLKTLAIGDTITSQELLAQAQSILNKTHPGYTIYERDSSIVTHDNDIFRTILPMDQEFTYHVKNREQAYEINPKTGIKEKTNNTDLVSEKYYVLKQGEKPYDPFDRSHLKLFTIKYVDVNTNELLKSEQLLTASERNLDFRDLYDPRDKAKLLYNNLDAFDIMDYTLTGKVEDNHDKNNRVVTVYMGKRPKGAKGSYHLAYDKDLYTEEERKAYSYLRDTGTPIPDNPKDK
# Streptococcus [17] = experiment: Group A Streptococcus viability loss, dose response, counter-screen for streptokinase expression inhibitor project, luminescence, BacTiterGlo (AID 1915); type: functional, organism-based;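 also: potency for reduction of bacterial viability or growth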
# Chain of Muscarinic acetylcholine receptor M1 (P08482 whole entry): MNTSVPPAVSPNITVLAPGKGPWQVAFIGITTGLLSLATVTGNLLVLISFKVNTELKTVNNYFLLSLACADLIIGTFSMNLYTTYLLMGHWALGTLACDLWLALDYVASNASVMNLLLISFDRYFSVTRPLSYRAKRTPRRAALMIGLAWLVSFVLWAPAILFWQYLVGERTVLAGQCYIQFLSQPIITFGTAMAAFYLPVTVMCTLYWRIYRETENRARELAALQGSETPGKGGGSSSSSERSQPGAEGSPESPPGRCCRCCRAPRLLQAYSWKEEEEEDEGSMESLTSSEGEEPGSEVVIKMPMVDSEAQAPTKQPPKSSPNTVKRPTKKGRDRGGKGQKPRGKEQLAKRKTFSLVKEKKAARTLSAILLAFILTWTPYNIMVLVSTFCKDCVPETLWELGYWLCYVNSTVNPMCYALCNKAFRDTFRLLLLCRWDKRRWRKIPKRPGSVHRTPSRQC
# Chain of G-protein coupled receptor 35 (Q9HC97 whole entry): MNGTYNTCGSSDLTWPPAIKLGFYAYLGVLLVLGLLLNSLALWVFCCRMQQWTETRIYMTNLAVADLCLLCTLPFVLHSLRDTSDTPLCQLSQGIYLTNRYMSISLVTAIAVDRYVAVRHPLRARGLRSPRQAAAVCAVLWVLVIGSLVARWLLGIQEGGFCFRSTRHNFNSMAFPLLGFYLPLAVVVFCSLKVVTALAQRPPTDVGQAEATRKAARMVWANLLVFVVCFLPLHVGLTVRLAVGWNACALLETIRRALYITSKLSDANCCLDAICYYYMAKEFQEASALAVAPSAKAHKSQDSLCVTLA
# Chain of Voltage-dependent T-type calcium channel subunit alpha-1H (O95180 whole entry): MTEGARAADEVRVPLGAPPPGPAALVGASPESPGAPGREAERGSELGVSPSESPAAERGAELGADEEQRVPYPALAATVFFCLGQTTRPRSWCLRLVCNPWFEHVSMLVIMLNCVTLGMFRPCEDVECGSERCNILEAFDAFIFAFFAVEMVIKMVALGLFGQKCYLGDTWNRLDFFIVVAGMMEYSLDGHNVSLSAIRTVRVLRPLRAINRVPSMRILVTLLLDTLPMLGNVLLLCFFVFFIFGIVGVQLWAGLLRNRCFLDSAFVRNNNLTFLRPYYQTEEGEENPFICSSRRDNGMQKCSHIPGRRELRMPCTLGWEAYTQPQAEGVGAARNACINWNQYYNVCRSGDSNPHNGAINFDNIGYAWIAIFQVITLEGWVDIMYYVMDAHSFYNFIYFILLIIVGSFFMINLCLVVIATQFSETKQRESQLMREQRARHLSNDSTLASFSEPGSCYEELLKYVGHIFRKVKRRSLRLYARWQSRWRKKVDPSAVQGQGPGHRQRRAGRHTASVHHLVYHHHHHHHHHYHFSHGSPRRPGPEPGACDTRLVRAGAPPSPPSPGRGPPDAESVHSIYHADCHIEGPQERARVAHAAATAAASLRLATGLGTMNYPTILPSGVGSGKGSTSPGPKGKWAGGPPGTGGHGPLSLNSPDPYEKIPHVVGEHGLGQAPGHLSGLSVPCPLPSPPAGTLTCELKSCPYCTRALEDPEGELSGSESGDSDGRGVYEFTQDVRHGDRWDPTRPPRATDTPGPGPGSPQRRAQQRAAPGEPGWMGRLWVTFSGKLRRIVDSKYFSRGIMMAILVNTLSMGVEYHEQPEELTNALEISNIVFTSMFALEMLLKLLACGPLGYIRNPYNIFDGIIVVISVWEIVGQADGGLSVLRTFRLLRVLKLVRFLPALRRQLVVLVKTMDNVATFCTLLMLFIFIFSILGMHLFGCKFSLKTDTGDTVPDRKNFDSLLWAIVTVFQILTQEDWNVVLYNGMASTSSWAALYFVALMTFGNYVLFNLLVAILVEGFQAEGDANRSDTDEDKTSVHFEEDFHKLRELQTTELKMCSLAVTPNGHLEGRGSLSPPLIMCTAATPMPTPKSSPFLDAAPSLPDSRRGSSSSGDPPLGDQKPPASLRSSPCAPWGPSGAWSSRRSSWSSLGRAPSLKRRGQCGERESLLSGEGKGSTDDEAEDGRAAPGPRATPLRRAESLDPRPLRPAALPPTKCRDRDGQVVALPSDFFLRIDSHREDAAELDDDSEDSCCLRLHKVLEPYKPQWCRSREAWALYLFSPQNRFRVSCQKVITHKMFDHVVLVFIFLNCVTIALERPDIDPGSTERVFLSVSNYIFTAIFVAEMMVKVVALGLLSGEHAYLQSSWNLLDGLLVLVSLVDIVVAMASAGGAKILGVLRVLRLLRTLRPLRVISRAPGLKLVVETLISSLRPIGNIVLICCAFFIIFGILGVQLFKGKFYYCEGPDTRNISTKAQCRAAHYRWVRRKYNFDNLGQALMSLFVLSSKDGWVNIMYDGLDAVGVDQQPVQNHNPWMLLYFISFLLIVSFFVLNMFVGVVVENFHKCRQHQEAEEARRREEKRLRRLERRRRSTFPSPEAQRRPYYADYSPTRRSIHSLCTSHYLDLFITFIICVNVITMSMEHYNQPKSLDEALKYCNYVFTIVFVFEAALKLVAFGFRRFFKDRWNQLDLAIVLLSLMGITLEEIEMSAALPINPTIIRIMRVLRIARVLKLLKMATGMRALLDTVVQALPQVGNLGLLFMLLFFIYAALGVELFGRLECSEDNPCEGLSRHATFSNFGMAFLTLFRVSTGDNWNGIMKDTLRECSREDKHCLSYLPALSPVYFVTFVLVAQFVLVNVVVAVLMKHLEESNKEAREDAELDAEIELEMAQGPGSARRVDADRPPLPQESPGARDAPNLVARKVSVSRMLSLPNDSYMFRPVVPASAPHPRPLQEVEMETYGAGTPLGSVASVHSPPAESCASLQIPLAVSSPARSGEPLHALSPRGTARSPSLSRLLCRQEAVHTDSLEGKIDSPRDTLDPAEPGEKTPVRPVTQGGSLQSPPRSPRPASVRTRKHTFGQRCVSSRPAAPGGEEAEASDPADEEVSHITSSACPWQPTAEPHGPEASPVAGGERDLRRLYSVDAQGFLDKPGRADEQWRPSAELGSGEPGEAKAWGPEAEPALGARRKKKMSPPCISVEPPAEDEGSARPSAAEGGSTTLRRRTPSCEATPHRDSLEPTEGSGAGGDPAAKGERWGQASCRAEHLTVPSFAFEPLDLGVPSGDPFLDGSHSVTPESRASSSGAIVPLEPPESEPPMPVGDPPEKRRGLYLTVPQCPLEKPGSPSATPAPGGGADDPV
# Chain of Muscarinic acetylcholine receptor M3 (P20309 whole entry): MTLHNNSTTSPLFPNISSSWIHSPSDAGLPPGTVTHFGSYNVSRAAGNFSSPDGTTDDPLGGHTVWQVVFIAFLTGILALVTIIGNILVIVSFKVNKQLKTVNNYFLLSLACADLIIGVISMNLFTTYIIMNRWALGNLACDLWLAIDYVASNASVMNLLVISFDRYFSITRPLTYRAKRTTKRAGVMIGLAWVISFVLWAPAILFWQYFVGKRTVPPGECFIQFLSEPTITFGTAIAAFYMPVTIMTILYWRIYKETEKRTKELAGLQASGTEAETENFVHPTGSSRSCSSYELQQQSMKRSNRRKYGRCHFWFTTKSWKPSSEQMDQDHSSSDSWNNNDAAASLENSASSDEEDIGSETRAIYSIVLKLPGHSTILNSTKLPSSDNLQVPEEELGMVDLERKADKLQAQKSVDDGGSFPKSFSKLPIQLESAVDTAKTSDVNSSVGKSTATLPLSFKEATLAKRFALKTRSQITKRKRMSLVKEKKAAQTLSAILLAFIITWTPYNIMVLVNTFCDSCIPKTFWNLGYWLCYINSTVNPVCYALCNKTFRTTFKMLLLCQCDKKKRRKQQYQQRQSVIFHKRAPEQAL
# Chain of Glyceraldehyde-3-phosphate dehydrogenase (P04406 whole entry): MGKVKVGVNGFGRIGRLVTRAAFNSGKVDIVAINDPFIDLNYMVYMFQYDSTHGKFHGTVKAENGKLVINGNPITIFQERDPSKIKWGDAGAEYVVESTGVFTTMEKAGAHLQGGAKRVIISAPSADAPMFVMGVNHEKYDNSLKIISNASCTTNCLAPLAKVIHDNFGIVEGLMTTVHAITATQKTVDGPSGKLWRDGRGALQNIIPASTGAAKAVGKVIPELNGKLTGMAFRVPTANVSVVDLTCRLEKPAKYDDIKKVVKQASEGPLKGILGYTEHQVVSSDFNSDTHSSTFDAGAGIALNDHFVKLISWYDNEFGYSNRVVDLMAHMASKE
# Chain of Protein Rev (P05866 whole entry): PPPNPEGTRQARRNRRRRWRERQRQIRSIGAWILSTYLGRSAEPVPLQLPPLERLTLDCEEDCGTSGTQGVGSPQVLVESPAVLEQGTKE
# Chain of Procathepsin L (P07711 whole entry): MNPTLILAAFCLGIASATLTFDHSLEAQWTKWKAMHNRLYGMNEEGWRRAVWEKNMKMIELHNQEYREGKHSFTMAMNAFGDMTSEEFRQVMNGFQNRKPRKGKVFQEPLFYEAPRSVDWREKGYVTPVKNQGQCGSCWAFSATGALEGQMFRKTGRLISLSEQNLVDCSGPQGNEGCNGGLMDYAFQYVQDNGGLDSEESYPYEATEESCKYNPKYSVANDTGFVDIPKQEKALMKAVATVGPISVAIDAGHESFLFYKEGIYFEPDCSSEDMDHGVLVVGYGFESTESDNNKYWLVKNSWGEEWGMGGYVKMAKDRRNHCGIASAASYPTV
# Chain of Aspartyl aminopeptidase (Q8I2J3 whole entry): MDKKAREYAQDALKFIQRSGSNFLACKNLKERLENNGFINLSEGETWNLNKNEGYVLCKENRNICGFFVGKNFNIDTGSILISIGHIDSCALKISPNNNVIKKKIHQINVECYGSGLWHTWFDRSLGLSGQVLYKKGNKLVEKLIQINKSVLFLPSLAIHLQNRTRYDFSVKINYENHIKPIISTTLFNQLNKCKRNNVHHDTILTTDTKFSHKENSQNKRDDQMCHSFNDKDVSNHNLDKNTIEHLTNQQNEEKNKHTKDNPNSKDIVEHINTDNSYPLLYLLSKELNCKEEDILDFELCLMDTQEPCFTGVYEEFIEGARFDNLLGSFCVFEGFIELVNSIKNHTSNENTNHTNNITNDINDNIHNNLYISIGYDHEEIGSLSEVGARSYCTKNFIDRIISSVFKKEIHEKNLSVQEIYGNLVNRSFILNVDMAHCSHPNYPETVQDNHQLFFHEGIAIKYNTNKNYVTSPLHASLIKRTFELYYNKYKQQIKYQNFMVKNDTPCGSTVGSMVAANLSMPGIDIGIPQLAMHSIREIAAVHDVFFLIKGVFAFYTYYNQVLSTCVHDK
smiles,measurement,setting,value
C=CCOc1c(Br)cc(CNc2nccs2)cc1OC,EC50,[1],6.12 µM (active)
O=C(O)CN1C(=O)/C(=C\c2ccc(N3CCCCC3)o2)SC1=S,EC50,[2],12.4 µM (active)
Nc1ncnc2c1ncn2[C@@H]1O[C@H](COP(=O)(O)OP(=O)(O)O)[C@@H](O)[C@H]1O [ADENOSINE DIPHOSPHATE],IC50,[3],> 5 µM (inconclusive)
same,IC50,[4],0.28 µM (active)
CC1=NOC(=O)/C1=C/c1ccc(N(C)C)cc1,IC50,Protein Rev,2.86 µM (active)
Cn1c2ccccc2c2cc(/C=C(\NC(=O)c3ccccc3)C(=O)NCC(=O)O)ccc21,IC50,Insulin-degrading enzyme,42.5 µM (not active)
same,IC50,[5],> 55.7 µM (not active)
COc1ccc2nc(C)cc(NCc3ccc(F)cc3)c2c1,EC50,[6],5.96 µM (active)
same,IC50,[7],2.6 µM (active)
CCOC(=O)N1CCC(NCCNC(=O)c2ccccc2)CC1,EC50,[8],28 µM (inconclusive)
same,EC50,[9],36.5 µM (inconclusive)
same,EC50,[10],64.6 µM (inconclusive)
same,EC50,[11],21.4 µM (inconclusive)
same,EC50,[12],12.4 µM (inconclusive)
O=C(NCc1cccnc1)NC1(C(F)(F)F)Oc2ccc(Cl)cc2O1 (configuration not stated),IC50,Aspartyl aminopeptidase,1.58 µM (active)
same,IC50,Procathepsin L,> 59.6 µM (not active)
same,IC50,[13],8.54 µM (active)
Cc1ccccc1CN1C[C@@H]2C[C@@H](c3c[nH]nc3-c3ccc(F)cc3)N3CCC[C@@]23C1=O,IC50,[14],25.4 µM (not active)
COCc1cc(Sc2c(Cl)cccc2Cl)nc(-c2ccccc2)n1,EC50,[15],8.22 µM (active)
same,EC50,Streptococcus [16],> 500 µM (not active)
same,EC50,Streptokinase A,9.31 µM (active)
same,EC50,Streptococcus [17],> 150 µM (not active)
